In patent US20160376237A1, “NOVEL PYRIDINE DERIVATIVES” (Hoffmann-La Roche Inc., priority 2014, published 2016):

What follows are molecules tested against T1, human CB2 receptors (Homo sapiens, UniProt P34972) (assay: cAMP assay). Conditions: not given.
T1 construct: expressed in transfected cells; host or cells: CHO cells
Assay type: cell-based
Method: CHO cells expressing human CB1 or CB2 receptors are seeded 17-24 hours prior to the experiment 50.000 cells per well in a black 96 well plate with flat clear bottom (Corning Costar #3904) in DMEM (Invitrogen No. 31331), 1×HT supplement, with 10% fetal calf serum and incubated at 5% CO2 and 37° C. in a humidified incubator. The growth medium was exchanged with Krebs Ringer Bicarbonate buffer with 1 mM IBMX and incubated at 30° C. for 30 min. Compounds were added to a final assay volume of 100 μl and incubated for 30 min at 30° C. Using the cAMP-Nano-TRF detection kit the assay (Roche Diagnostics) was stopped by the addition of 50 μl lysis reagent (Tris, NaCl, 1.5% Triton X100, 2.5% NP40, 10% NaN3) and 50 μl detection solutions ([…] mAb Alexa700-cAMP 1:[…] Ruthenium-2-AHA-cAMP) and shaken for 2 h at room temperature. The time-resolved energy transfer is measured by a TRF reader (Evotec Technologies GmbH), equipped with a ND:YAG laser as excitation source. The plate is measured twice with the excitation at 355 nm and at the emission with a delay of 100 ns and a gate of 100 ns, total exposure time 10 s at 730 (bandwidth 30 nm) or 645 nm (bandwidth 75 nm), respectively. The FRET signal is calculated as follows: FRET=T730-Alexa730-P(T645-B645) with P=Ru730-B730/Ru645-B645, where T730 is the test well measured at 730 nM, T645 is the test well measured at 645 nm, B730 and B645 are the buffer controls at 730 nm and 645 nm, respectively. cAMP content is determined from the function of a standard curve spanning from […] to 0.13 nM cAMP.
EC50 values were determined using Activity Base analysis (ID Business Solution, Limited).

T1 sequence (P34972 whole entry): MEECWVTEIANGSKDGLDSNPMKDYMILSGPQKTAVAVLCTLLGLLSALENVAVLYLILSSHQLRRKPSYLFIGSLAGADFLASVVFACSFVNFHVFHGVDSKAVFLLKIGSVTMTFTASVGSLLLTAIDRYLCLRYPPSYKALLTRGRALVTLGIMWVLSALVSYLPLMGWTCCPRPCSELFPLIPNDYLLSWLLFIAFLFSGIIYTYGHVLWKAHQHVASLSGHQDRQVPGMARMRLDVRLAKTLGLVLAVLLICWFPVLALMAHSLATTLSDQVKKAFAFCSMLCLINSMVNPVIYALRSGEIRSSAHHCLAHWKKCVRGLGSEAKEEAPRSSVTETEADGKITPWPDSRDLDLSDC

SMILES | EC50 [nM]
COC(=O)C(C)(C)NC(=O)c1ccc(-c2ccc(Cl)cc2)c(SC)n1 [Example 1, Methyl 2-[[5-(4-chlorophenyl)-6-methylsulfanylpyridine-2-carbonyl]amino]-2-methylpropanoate] | 344
COC(=O)C(C)(C)NC(=O)c1ccc(-c2ccc(Cl)cc2)c(OCC2CC2)n1 [Example 2, Methyl 2-[[5-(4-chlorophenyl)-6-(cyclopropylmethoxy)pyridine-2-carbonyl]amino]-2-methylpropanoate] | 48.2
CC(C)(NC(=O)c1ccc(-c2ccc(Cl)cc2)c(OCC2CC2)n1)c1ncco1 [Example 3, 5-(4-Chlorophenyl)-6-(cyclopropylmethoxy)-N-[2-(1,3-oxazol-2-yl)propan-2-yl]pyridine-2-carboxamide] | 144
Cc1nc(C(C)(C)NC(=O)c2ccc(-c3ccc(Cl)cc3)c(OCC3CC3)n2)no1 [Example 4, 5-(4-Chlorophenyl)-6-(cyclopropylmethoxy)-N-[2-(5-methyl-1,2,4-oxadiazol-3-yl)propan-2-yl]pyridine-2-carboxamide] | 232
CC(C)(NC(=O)c1ccc(-c2ccccc2)c(OCC2CC2)n1)c1ncco1 [Example 5, 6-(Cyclopropylmethoxy)-N-[2-(1,3-oxazol-2-yl)propan-2-yl]-5-phenylpyridine-2-carboxamide] | 34.2
CCC(CC)(NC(=O)c1ccc(-c2ccccc2)c(OCC2CC2)n1)C(=O)NC [Example 6, 6-(Cyclopropylmethoxy)-N-[3-(methylcarbamoyl)pentan-3-yl]-5-phenylpyridine-2-carboxamide] | 831
CCC(CC)(NC(=O)c1ccc(OCC2CC2)c(-c2cccc(Cl)c2)n1)C(=O)NC [Example 7, 6-(3-Chlorophenyl)-5-(cyclopropylmethoxy)-N-[3-(methylcarbamoyl)pentan-3-yl]pyridine-2-carboxamide] | 51.3
COC1CN(c2ccc(C(=O)NC(C)(C)c3noc(C)n3)nc2OCC2CC2)C1 [Example 8, 6-(Cyclopropylmethoxy)-5-(3-methoxyazetidin-1-yl)-N-[2-(5-methyl-1,2,4-oxadiazol-3-yl)propan-2-yl]pyridine-2-carboxamide] | 86.6
Cc1nc(C(C)(C)NC(=O)c2ccc(OCC3CC3)c(-c3cccc(Cl)c3)n2)no1 [Example 9, 6-(3-Chlorophenyl)-5-(cyclopropylmethoxy)-N-[2-(5-methyl-1,2,4-oxadiazol-3-yl)propan-2-yl]pyridine-2-carboxamide] | 42.4
COC1CN(c2ccc(C(=O)N[C@@H](CC3CC3)C(N)=O)nc2OCC2CC2)C1 [Example 10, N-[(2S)-1-amino-3-cyclopropyl-1-oxopropan-2-yl]-6-(cyclopropylmethoxy)-5-(3-methoxyazetidin-1-yl)pyridine-2-carboxamide] | 63.4
CC(C)(NC(=O)c1ccc(N2CC3(COC3)C2)c(OCC2CC2)n1)c1nccs1 [Example 11, 6-(Cyclopropylmethoxy)-5-(2-oxa-6-azaspiro[3.3]heptan-6-yl)-N-[2-(1,3-thiazol-2-yl)propan-2-yl]pyridine-2-carboxamide] | 135
CC(C)C[C@H](NC(=O)c1ccc(N2CC3(COC3)C2)c(OCC2CC2)n1)C(N)=O [Example 12, N-[(2S)-1-amino-4-methyl-1-oxopentan-2-yl]-6-(cyclopropylmethoxy)-5-(2-oxa-6-azaspiro[3.3]heptan-6-yl)pyridine-2-carboxamide] | 177
CC(C)(NC(=O)c1ccc(OCC2CC2)c(-c2cccc(Cl)c2)n1)c1nccs1 [Example 13, 6-(3-Chlorophenyl)-5-(cyclopropylmethoxy)-N-[2-(1,3-thiazol-2-yl)propan-2-yl]pyridine-2-carboxamide] | 23.1
NC(=O)[C@H](CC1CC1)NC(=O)c1ccc(OCC2CC2)c(OCC2CC2)n1 [Example 14, N-[(2S)-1-Amino-3-cyclopropyl-1-oxopropan-2-yl]-5,6-bis(cyclopropylmethoxy)pyridine-2-carboxamide] | 95
COC1CN(c2ccc(C(=O)N[C@@H](CC(C)C)C(N)=O)nc2OCC2CC2)C1 [Example 15, N-[(2S)-1-Amino-4-methyl-1-oxopentan-2-yl]-6-(cyclopropylmethoxy)-5-(3-methoxyazetidin-1-yl)pyridine-2-carboxamide] | 21.9
CSCC[C@H](NC(=O)c1ccc(OCC2CC2)c(Cl)n1)C(N)=O [Example 16, N-[(2S)-1-Amino-4-methylsulfanyl-1-oxobutan-2-yl]-6-chloro-5-(cyclopropylmethoxy)pyridine-2-carboxamide] | 973
CCC(CC)(NC(=O)c1ccc(OCC2CC2)c(Cl)n1)C(=O)NC [Example 17, 6-Chloro-5-(cyclopropylmethoxy)-N-[3-(methylcarbamoyl)pentan-3-yl]pyridine-2-carboxamide] | 800
Cc1nc([C@H](CC2CC2)NC(=O)c2ccc(OCC3CC3)c(Cl)n2)no1 [Example 18, 6-Chloro-5-(cyclopropylmethoxy)-N-[(1S)-2-cyclopropyl-1-(5-methyl-1,2,4-oxadiazol-3-yl)ethyl]pyridine-2-carboxamide] | 646
CCOC(=O)C(CC)(CC)NC(=O)c1ccc(N2CC(OC)C2)c(OCC2CC2)n1 [Example 20, Ethyl 2-[[6-(cyclopropylmethoxy)-5-(3-methoxyazetidin-1-yl)pyridine-2-carbonyl]amino]-2-ethylbutanoate] | 6.5
CCC(CC)(NC(=O)c1ccc(N2CC(OC)C2)c(OCC2CC2)n1)C(=O)NCCF [Example 25, 6-(Cyclopropylmethoxy)-N-[3-(2-fluoroethylcarbamoyl)pentan-3-yl]-5-(3-methoxyazetidin-1-yl)pyridine-2-carboxamide] | 334
CCC(CC)(NC(=O)c1ccc(N2CC(OC)C2)c(OCC2CC2)n1)C(=O)N1CC(F)C1 [Example 26, 6-(Cyclopropylmethoxy)-N-[3-(3-fluoroazetidine-1-carbonyl)pentan-3-yl]-5-(3-methoxyazetidin-1-yl)pyridine-2-carboxamide] | 4.58
NC(=O)[C@@H]1CC(F)(F)CN1C(=O)c1ccc(N2CCC(O)(C(F)(F)F)C2)c(OCC2CC2)n1 (stereo partly drawn) [Example 28, (2S)-1-[6-(Cyclopropylmethoxy)-5-[3-hydroxy-3-(trifluoromethyl)pyrrolidin-1-yl]pyridine-2-carbonyl]-4,4-difluoropyrrolidine-2-carboxamide] | 1680
CC(C)C[C@H](NC(=O)c1ccc(N2CCC(O)(C(F)(F)F)C2)c(OCC2CC2)n1)C(N)=O (stereo partly drawn) [Example 29, N-[(2S)-1-Amino-4-methyl-1-oxopentan-2-yl]-6-(cyclopropylmethoxy)-5-[3-hydroxy-3-(trifluoromethyl)pyrrolidin-1-yl]pyridine-2-carboxamide] | 1890
CC(C)C[C@H](NC(=O)c1ccc(N2CCC3(C2)CC3(F)F)c(OCC2CC2)n1)C(N)=O (stereo partly drawn) [Example 30, N-[(2S)-1-Amino-4-methyl-1-oxopentan-2-yl]-6-(cyclopropylmethoxy)-5-(2,2-difluoro-5-azaspiro[2.4]heptan-5-yl)pyridine-2-carboxamide] | 38.1
NC(=O)[C@@H]1CC(F)(F)CN1C(=O)c1ccc(N2CCC3(C2)CC3(F)F)c(OCC2CC2)n1 (stereo partly drawn) [Example 31, (2S)-1-[6-(Cyclopropylmethoxy)-5-(2,2-difluoro-5-azaspiro[2.4]heptan-5-yl)pyridine-2-carbonyl]-4,4-difluoropyrrolidine-2-carboxamide] | 19

Same assay, conditions: CHO cells expressing human CB2 receptors; read-out: cAMP assay human CB2 EC50

SMILES | EC50 [nM]
COC1CN(c2ccc(C(=O)NC(C)(C)Cc3nnc(-c4ccc(F)cc4)o3)nc2OCC2CC2)C1 [Example 21, 6-(Cyclopropylmethoxy)-N-[1-[5-(4-fluorophenyl)-1,3,4-oxadiazol-2-yl]-2-methylpropan-2-yl]-5-(3-methoxyazetidin-1-yl)pyridine-2-carboxamide] | 853
COC1CN(c2ccc(C(=O)NC3(CC(N)=O)COC3)nc2OCC2CC2)C1 [Example 22, N-[3-(2-Amino-2-oxoethyl)oxetan-3-yl]-6-(cyclopropylmethoxy)-5-(3-methoxyazetidin-1-yl)pyridine-2-carboxamide] | 67
CCC(CC)(NC(=O)c1ccc(N2CC(OC)C2)c(OCC2CC2)n1)C(=O)NC [Example 23, 6-(Cyclopropylmethoxy)-5-(3-methoxyazetidin-1-yl)-N-[3-(methylcarbamoyl)pentan-3-yl]pyridine-2-carboxamide] | 47
COC1CN(c2ccc(C(=O)NCC3(O)CCCCC3)nc2OCC2CC2)C1 [Example 24, 6-(Cyclopropylmethoxy)-N-[(1-hydroxycyclohexyl)methyl]-5-(3-methoxyazetidin-1-yl)pyridine-2-carboxamide] | 1290
CCC(CC)(NC(=O)c1ccc(N2CC(OC)C2)c(OCC2CC2)n1)C(=O)NCCCF [Example 27, 6-(Cyclopropylmethoxy)-N-[3-(3-fluoropropylcarbamoyl)pentan-3-yl]-5-(3-methoxyazetidin-1-yl)pyridine-2-carboxamide] | 444
